Columns and labels:
p-histone H3 = settings: not measured in this study; no reference given; cited from earlier work
Plasma pharmacokinetics = type: in vivo, human; settings: for AUC(0-t): 40 mg, Mean AUC24h, 40 mg once daily, dose expansion
[1] = system: breast cancer cell lines with TP53 loss of function mutations; settings: cited from earlier work
[2] = system: TNBC cell lines and xenografts; settings: in combination with ixabepilone; cited from earlier work
[3] = system: cell lines from a variety of tumor types including several that were resistant to paclitaxel; settings: preclinical; cited from earlier work

Cc1csc(-c2nnc(Nc3ccc(Oc4ncccc4-c4ccnc(N)n4)cc3)c3ccccc23)c1 [AMG 900]
50% inhibitory concentration for the in vivo inhibition of p-histone H3 (p-histone H3): 273 ng/mL
Accumulation based on AUC8h (Plasma pharmacokinetics; cycle 1 day 1 to cycle 1 day 4, all dose cohorts): < 2 fold
Tmax (Plasma pharmacokinetics; human, plasma, oral): 1 to 3 h
half-life (Plasma pharmacokinetics; human, plasma, oral): 6 to 9 h
AUC(0-t) (Plasma pharmacokinetics; human, plasma, oral, CRPC): 7700 ng·h/mL
AUC(0-t) (Plasma pharmacokinetics; human, plasma, oral, TNBC): 10600 ng·h/mL
AUC(0-t) (Plasma pharmacokinetics; human, plasma, oral, ovarian cancer cohort): 12900 ng·h/mL
Mean exposure (AUC24h) versus dose (Plasma pharmacokinetics; oral, 1 to 50 mg): increased as the dose increased
Sensitivity to AMG 900 compared with cell lines without such mutations [1]: greater sensitivity
Growth of TNBC cell lines and xenografts [2]: inhibited growth
Proliferation of tumor cell lines [3]: inhibited the proliferation

From PMC6639057 (Investigational new drugs, 2018)
